In general, Cmax refers to the peak of the concentration-time curve. Broadly, the CL/F is the apparent clearance, not corrected for the fraction that reaches the circulation. In general, Tmax refers to the time from dosing to the highest level. A word on the half-life: it is how long it takes for the measured level to halve. Read a low half-life as rapid decline.

The source of these data is paper PMC11434026, “Development and Validation of an LC-MS/MS Assay for the Quantitation of MO-OH-Nap Tropolone in Mouse Plasma: Application to In Vitro and In Vivo Pharmacokinetic Studies” (Molecules, 2024).

Like-named read-outs stand apart in the source and are kept apart here. Bounds are passed on as bounds.

The subject of one series is mouse plasma proteins. Nature of the series: Plasma protein binding by Rapid Equilibrium Dialysis (RED). The class given is in vitro ADME. Conditions: for % Drug Remaining at 5 h ± SD: 37 °C; for Equilibrium at 5 h ± SD: receiver/donor concentration; for % Plasma Protein Bound ± SD: mouse plasma; for % Drug Remaining at 5 h ± SD / % Plasma Protein Bound ± SD: 5 h. The procedure:
[…] The RED Kit represents 90 wells with two chambers at each well (red chamber for plasma and white buffer chamber separated by Teflon base plate. Prior to the experiments, RED kit was rinsed with 10% ethanol for 10 min and left to dryness. Also, mouse plasma was centrifuged at 2200 rpm (540× g) for 5 min and adjusted to pH […] with lactic acid. In brief, MO-OH-Nap spiked plasma samples (300 µL) were added in red chamber. The buffer chamber contained […] of Phosphate-buffered saline (100 mM, pH 7.4), which contained 100 mM sodium phosphate (Na3PO4) and 150 mM NaCl. The RED kit plate was covered with sealing tape and incubated at 37 °C on an orbital shaker at 300 rpm for 5 h. Aliquot of 50 µL were collected from both chambers, then mixed with equal amount of buffer or blank plasma, consecutively, for analysis. The samples were then processed using PPT extraction technique, as per described in the Section 4.4, and analyzed by LC-MS/MS.
Additionally, the plasma stability and the non-specific binding potential of MO-OH-Nap to the RED kit dialysis membrane were determined separately at the same time from the remaining plasma samples spiked with MO-OH-Nap.
Stability and non-specific binding were assessed by collecting samples at 0 h and 5 h of spiked MO-OH-Nap […] that was incubated in the same PPB condition for 5 h. The two samples were then analyzed by LC-MS/MS and the concentration was then compared between the two time points. The stability, equilibrium, device recovery, and PPB in plasma were calculated using the following equations:(6) % Drug Bound=Concentrationdonor cell−Conentrationreceiver cell/Concentrationdonor cell×100 (7) % Device Recovery=Concentrationreceiver cell+Concentrationdonor cell/Concentration5 h×100 (8) % Remaining at 5 h=Concentration5 h/Concentration0 h×100 (9) Equilibrium at 5 h=Concentrationreceiver cell/Concentrationdonor cell
For orientation: Equilibrium dialysis compares concentrations on both sides of a semipermeable membrane.

The nature of series [1]: Plasma pharmacokinetics after single IP dose in CD-1 mice. Conditions: for Cmax / Vd/F / AUC: 5 mg/kg. The class given is in vivo, mouse. As to the method: Female CD-1 mice,6–8-week-old, with weights ranging from 20 to 25 g were housed in the UNMC animal facility, at a temperature of 23–24 °C, relative humidity of 40–70%, and 12/12-h light/dark cycles. Mice were left to acclimatize to laboratory conditions for 7 days prior to experimental day. MO-OH-Nap was dissolved in a 5% DMSO, 45% w/v hydroxypropyl-β-cyclodextrin solution in PBS (final concentration 0.625 mg/mL MO-OH-Nap). MO-OH-Nap (5 mg/kg) was administered IP. After dosing, approximately 100 µL of blood was collected in Lithium-Heparin-Microvette 300 µL Capillary Blood Collection Tube (SARSTEDT AG& Co., Nümbrecht, Germany) from the maxillary vein at 5, 15, 30 min and 1, 2, 4, 6, 8, 24, and 48 h. Two blood time points were collected from every mouse and the third time point was the terminal time point, for a total of three time points from each mouse (5 mice/group/per time point). Blood was centrifuged at 4000× g at 4 °C for 10 min to extract plasma. The collected plasma samples were stored at −80 °C until analysis. The pharmacokinetics of MO-OH-Nap were determined using non-compartmental (NCA) pharmacokinetics analysis, utilizing Phoenix® WinNonlin software version 8.2 (Certara Corporation, Mountain View, CA, USA). The Cmax and Tmax were determined from visual inspection of the concentration time data. The AUC0_∞ was estimated using the linear trapezoidal method from 0 time point to last time point (0-tlast) and extrapolation from last time point to infinity based on the observed concentration at the last time point divided by the terminal elimination rate constant (k). The t1/2, CL/F and Vd/F were calculated using Equation (10), Equation (11) and Equation (12), respectively. (10) t1/2=0.693/k (11) CL=Dose/AUC0_∞ (12) Vd=Dose /k×AUC0_∞

The subject of the next series is CD-1 mice. Details: method as in PMID 30612055. The conditions noted are these: up to 9.4 mg/kg intravenously three times weekly; cited from earlier work.
Series [2] in a line: Gastrointestinal fluid stability (SGF, SIF, PBS). The conditions noted are these: 37 °C, 1 µg/mL. The format is physicochemical. The procedure:
The gastric stability of MO-OH-Nap was determined at different physiological pH conditions using simulated gastric/intestinal fluid (SGF/SIF) or PBS (pH7.4) prepared with USP specifications. Briefly, simulated gastric fluid (SGF), pH 1.2, was prepared by dissolving […] of sodium chloride (NaCl) and 3.2 g of pepsin in 7 mL hydrochloric acid (HCl) and a sufficient amount of water to make 1000 mL. The simulated intestinal fluid (SIF), pH 6.8, was prepared by dissolving 6.805 g of monobasic potassium phosphate in 250 mL of water. Then 77 mL of 0.2 N sodium hydroxide (NaOH) was mixed with 500 mL water and 10 g of pancreatin, then made up to 1000 mL. The SIF solution is adjusted to pH 6.8 ± 0.1 with either 0.2 N NaOH or 0.2 N HCl. MO-OH-Nap at 1 µg/mL concentration was incubated with SGF, SIF and PBS (100 mM pH 7.4) at 37 °C on a shaking water bath, n = 3. Samples (100 µL) were collected at 0, 15, 30, 60, and 120 min. Immediately after sample collection, 300 µL ACN was added as a quenching solvent to stop chemical degradation. IS solution (10 µL from 1 µg/mL stock) was added to each sample, vortexed the centrifuged at 14,000 rpm (22,000× g) and 4 °C, and then transferred to HPLC vial for LC-MS/MS analysis. Stability was determined through the percentage of the parent drug remaining at different time points relative to the parent drug at 0 min (100% parent).

The mark [3] stands for this setting: female, mouse, CD-1 mice, single IP 5 mg/kg, plasma.

Turning to `O=c1c(O)ccccc1-c1ccc2ccccc2c1` [MO-OH-Nap, MO-OH-Nap tropolone], the “% Drug Remaining at 5 h ± SD” value in the series with mouse plasma proteins (1 µg/mL) was 105.6 ± 0.8%; in the series with mouse plasma proteins (10 µg/mL) it was 91.1 ± 2.5%. For the same compound, the figures for the “Equilibrium at 5 h ± SD” value with mouse plasma proteins (1 µg/mL) and in the series with mouse plasma proteins (10 µg/mL) were 0.3 ± 0.5 and 0.1 ± 0.00, respectively. Further, the “% Plasma Protein Bound ± SD” value in the series on mouse plasma proteins (1 µg/mL) is listed as 99.6 ± 0.1%; in the series with mouse plasma proteins (10 µg/mL), 99.7 ± 0.1%. Further, the detectability in plasma result in series [1] (48 h after single IP 5 mg/kg) is “detectable”. Further, the Cmax in series [1] (CD-1 mice, single IP 5 mg/kg, plasma) turned out to be 3040.9 ng/mL; in series [1] (female, CD-1, mouse, plasma, ip, CD-1 mice, single IP 5 mg/kg, plasma, read-out: Cmax), 3040 ng/mL. Further, the Vd/F is 43,727.1 mL/kg in series [1] (CD-1 mice, single IP 5 mg/kg) and 43.3 L/kg in series [1] (female, CD-1, mouse, plasma, ip, CD-1 mice, single IP 5 mg/kg, read-out: Vd/F). Further, the AUC turned out to be 2750 ng·h/mL in series [1] (female, CD-1, mouse, plasma, ip, CD-1 mice, single IP 5 mg/kg, plasma, read-out: AUC0_last) and 2860 ng·h/mL in series [1] (female, CD-1, mouse, plasma, ip, CD-1 mice, single IP 5 mg/kg, plasma, read-out: AUC0_∞). This compound also showed a CL/F in series [1] (female, mouse, plasma, CD-1 mice, single IP 5 mg/kg) of 29.8 mL/min/kg. The time of peak concentration (Tmax) in series [1] (setting [3]) stood at 0.3 h. The compound further had a half-life in series [1] (setting [3]) of 17.7 h. In addition, the “tolerability (blood counts, renal and hepatic functions, body weight)” value with CD-1 mice was “well-tolerated”. For the same compound, the drug remaining in series [2] (PBS pH 7.4, 120 min) is listed as over 80%; in series [2] (SGF pH 1.2, 120 min), over 80%; in series [2] (SIF pH 6.8, 120 min), over 80%.
